The source of these data is US20260374739A1, “SMALL MOLECULAR WEIGHT CHEMICAL COMPOUND TO ANTAGONIZE EPH-EPHRIN TETRAMERIZATION AND INHIBIT BIDIRECTIONAL SIGNALING” (THE BOARD OF REGENTS OF THE UNIVERSITY OF TEXAS SYSTEM, priority 2022, published 2026).

One series addresses EphrinB3-EphB1 (Homo sapiens, UniProt P54762). In words: Octet, immobilized human EphrinB3 binding to human EphB1. On the procedure: (§1) Studies were conducted to confirm that A20 chemicals can effectively target the human Eph/Ephrin proteins. Octet system was used to first characterize the biophysical interactions of the human B class Eph and Ephrin proteins, and then was tested to assess how A20 may disrupt the interactions. Since the human and rodent proteins are highly conserved, and essentially identical, with EphB2 sharing 99.5% identity between human and mouse, with only 5 of ~1,000 amino acids different, any species-specific differences were not anticipated. Therefore, commercially available human EphrinB1-Fc (EB1), EphrinB2-Fc (EB2), and EphrinB3-Fc (EB3) ectodomain proteins were sparsely immobilized onto biosensors and then exposed to 50 nM of soluble human EphB1-His, EphB2-His, and EphB4-His ectodomains for 800 sec association and 1,000 sec dissociation steps with a total of nine different interactions analyzed. In the absence of A20 chemical, the immobilized human EphrinB proteins bound to their appropriate human EphB target proteins; with EphrinB1 only bound EphB1 and EphB2, EphrinB2 bound all three EphB1, EphB2, and EphB4, and EphrinB3 only bound EphB1 and EphB2 (FIG. 19A-19B).
Addition of compound also altered dissociation kinetics. […] This is referred to as the “unsurmountable” component of the Eph-Ephrin interaction (FIG. 21C). Additionally, AUC data was graphed for these runs (FIG. 21D). […]
For orientation: Biolayer interferometry detects binding as a change in optical thickness at a sensor tip.

A short description of series [1]: multi-day IP dosing tolerability. Particulars: multi-day dosing every 12 hr, up to 40 mg/kg. The class given is in vivo, mouse.
For a further series, the target named is T1, EphB1-EB2 (Rattus norvegicus, UniProt P09759).
T1 construct: mouse (Mus musculus) EB2-His ectodomain (Sino Biologicals), ELISA
T1 sequence (P09759 18-538): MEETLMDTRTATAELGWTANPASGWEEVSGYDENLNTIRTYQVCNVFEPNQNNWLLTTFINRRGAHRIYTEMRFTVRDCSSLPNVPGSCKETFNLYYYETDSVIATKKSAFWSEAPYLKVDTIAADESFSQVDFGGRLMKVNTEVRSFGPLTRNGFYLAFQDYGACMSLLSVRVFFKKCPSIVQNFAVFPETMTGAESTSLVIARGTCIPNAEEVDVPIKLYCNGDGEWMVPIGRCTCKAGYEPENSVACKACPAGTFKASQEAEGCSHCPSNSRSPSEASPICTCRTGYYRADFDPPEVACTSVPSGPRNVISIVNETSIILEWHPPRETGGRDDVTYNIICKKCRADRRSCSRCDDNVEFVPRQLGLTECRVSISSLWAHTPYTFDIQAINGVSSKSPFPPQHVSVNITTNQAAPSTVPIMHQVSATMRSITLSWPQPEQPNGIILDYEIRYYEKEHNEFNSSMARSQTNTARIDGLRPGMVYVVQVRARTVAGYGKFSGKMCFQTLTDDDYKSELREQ
Kind of series: ELISA EB2-His binding to immobilized EphB1-Fc. Further details: species or system mouse EB2. Conditions: 5 μM. On the procedure: The 32 hits were then subjected to ELISA in which EphB1-Fc was first immobilized in 96 well Protein A plates, then soluble EB2-His was added with hit compound in triplicate, again at 5 μM. After 2 hr at RT to allow EB2-His binding to EphB1-Fc, wells were washed, incubated with nickel-activated horseradish peroxidase (HisProbe-HRP) to detect bound EB2-His protein, washed, and then incubated with ELISA Pico Chemiluminescent Substrate (both from Thermo-Fisher) before being read in a luminometer. A single-protein counter ELISA using the dual-tagged EphB2-His-Fc ectodomain protein was also run. […] For simplicity, we call this compound A20.
A general note: An ELISA detects its analyte on a solid surface through an enzyme-linked reagent.

In a further series the target is T2, EphB4-Fc / EB2-His (Mus musculus, UniProt P54761).
T2 construct: soluble mouse EB2-His ectodomain, pulldown
T2 sequence (P54761 16-539 limits assumed): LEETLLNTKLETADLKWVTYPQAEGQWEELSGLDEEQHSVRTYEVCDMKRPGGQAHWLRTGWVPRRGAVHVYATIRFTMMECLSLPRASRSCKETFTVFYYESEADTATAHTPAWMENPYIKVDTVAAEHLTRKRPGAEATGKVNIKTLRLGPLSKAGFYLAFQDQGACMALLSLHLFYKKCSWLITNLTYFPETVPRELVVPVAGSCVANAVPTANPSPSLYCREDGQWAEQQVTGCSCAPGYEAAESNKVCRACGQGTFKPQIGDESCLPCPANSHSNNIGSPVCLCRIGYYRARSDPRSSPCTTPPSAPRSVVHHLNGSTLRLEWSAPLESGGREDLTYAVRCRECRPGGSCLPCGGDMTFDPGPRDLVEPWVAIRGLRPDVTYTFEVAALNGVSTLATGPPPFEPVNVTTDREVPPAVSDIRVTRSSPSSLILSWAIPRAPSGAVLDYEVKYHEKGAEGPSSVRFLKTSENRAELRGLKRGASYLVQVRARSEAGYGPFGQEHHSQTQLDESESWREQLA
Kind of series: pulldown EB2-His to EphB4-Fc. Type of series: binding. Conditions: up to 250 μM for A20; listed as A20.

The next series has as its target T3, EphrinB2-EphB4 (Homo sapiens, UniProt P54760).
T3 construct: soluble human EphB1-His, EphB2-His, and EphB4-His ectodomains; commercially available human EphrinB1-Fc (EB1), EphrinB2-Fc (EB2), and EphrinB3-Fc (EB3) ectodomain proteins; purchased
T3 sequence (P54760 16-539 limits assumed): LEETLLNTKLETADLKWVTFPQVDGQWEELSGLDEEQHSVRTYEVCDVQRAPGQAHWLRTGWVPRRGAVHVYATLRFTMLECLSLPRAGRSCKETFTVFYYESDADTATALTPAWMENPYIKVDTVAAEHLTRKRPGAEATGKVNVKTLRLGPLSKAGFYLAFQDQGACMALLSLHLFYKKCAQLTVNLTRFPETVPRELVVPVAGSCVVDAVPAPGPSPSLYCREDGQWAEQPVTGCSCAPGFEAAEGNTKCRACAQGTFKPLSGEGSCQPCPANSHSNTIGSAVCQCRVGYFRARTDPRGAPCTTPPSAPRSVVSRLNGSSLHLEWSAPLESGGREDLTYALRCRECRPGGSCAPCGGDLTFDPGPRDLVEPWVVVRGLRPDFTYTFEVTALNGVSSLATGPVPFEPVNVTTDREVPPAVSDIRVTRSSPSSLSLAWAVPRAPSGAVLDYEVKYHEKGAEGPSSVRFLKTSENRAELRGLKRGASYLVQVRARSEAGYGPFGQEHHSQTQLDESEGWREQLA
Kind of series: Octet, immobilized human EphrinB2 binding to 50 nM soluble human EphB4. On the procedure:
as §1, with “19A-19B). […]” for “19A-19B).”

Structures are written as SMILES. Entries after “also recorded” stand apart in the source; their conditions may differ.

Sequence of EphrinB3-EphB1 (P54762 18-540 limits assumed): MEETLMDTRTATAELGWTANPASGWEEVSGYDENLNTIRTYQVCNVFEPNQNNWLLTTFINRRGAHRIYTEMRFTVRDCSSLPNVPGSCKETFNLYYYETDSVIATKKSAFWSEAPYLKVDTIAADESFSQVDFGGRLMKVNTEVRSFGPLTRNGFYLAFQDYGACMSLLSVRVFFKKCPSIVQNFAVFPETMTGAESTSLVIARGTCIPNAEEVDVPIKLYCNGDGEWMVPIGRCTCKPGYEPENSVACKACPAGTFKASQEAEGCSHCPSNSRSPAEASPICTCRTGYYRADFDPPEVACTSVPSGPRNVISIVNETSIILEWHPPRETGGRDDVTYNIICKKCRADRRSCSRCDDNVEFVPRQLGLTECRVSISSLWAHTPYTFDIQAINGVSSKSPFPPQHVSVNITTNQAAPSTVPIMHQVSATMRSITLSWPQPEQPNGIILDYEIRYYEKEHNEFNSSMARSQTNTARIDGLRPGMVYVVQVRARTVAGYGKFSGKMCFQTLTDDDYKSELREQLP

On to `Oc1c(Br)cc(CN2CCOCC2)c2cccnc12` [Compound 5, 7-bromo-5-(morpholinomethyl)quinolin-8-ol], for which the “reduction of tetramer formation” value at EphrinB3-EphB1 (EB3-EphB1, A20) was 40%. The IC (maximum) at EphrinB3-EphB1 (read-out: concentration producing maximum inhibition) worked out at 10 µM. Moreover, in series [1], the “tolerability” value was “well tolerated”. Also, the “ELISA signal” value on EphB1-EB2 is “reduced signal in the two-protein ELISA”. Also, the “pulldown EphB4-Fc binding to EB2-His” value on EphB4-Fc / EB2-His is reported as “only a weak ability to prevent EphB4-Fc from binding to EB2-His; also recorded: only weak/poor ability to antagonize soluble EB2-His binding”. Further, the “absolute IC50” value on EphrinB2-EphB4 (A20 salt up to 100 μM) is “absence of an absolute IC50”. Besides, on EphrinB2-EphB4 (in presence of A20, role: inhibitor, 5° without), the association slope came to 3 °.
